The subject of one test is HepG2 cells. Nature of the test: Cell viability after treatment (Hoechst 33342). The format is cell-based. The following applies: HepG2, various concentrations, two treatments 48 hours apart. On the procedure: HepG2 cells, a hepatocellular carcinoma cell line, were plated with 4 to 6 replications at each hit compound concentration in a 96-well microtiter plate supplemented with a culture medium. The hit compound dissolved in DMSO was added the next day according to the design of experiments, and the number of seeded cells was determined by the cell density reaching 80% on the final day of the protocol treated as a cell control. After 24 hours of cell seeding, cells were treated with hit compounds (M2 and BI2536) at various concentrations, and 48 hours after primary treatment, the medium was aspirated and then secondary treatment was performed. After 48 hours, cell nuclei were visualized by 2.5 μM Hoechst 33342 staining at 37° C. for 30 minutes, then the medium was aspirated and washed with a fresh medium. The plate was read using Cytation™ 3 (BioTek, USA), the cell viability was analyzed, and the results were presented as a relative percentage of viable cells after treatment with the hit compound compared to the control treatment.

For a further test, the system named is SNU-449. Put plainly: Cell cycle by flow cytometry, phospho-histone H3 (Ser10) staining. The class given is cell-based. To be noted: M2 20, 40, 80 μM, BI2536 20 nM. On the procedure: Flow cytometry equipment was used to confirm the effect on the cell cycle in the case of treatment with Compound 2 (M2). SNU-449, which is one of the liver cancer cell lines, were treated with Compound 2 (M2) at each of concentrations of 20, 40, and 80 μM after 1 day and 3 days, and were harvested after another 2 days.
Furthermore, it was intended to more specifically stain a cell population that stopped in the metaphase of cell division using a phospho-histone H3 (Ser10) antibody capable of specifically staining only the cells that stopped in the metaphase of cell division. As a positive control, cells were treated with BI2536 known as a PLK1 kinase inhibitor at 20 nM and used to observe cells in the metaphase of cell division and an increase in the G2/M phase.
For orientation: A flow cytometer gives signals particle by particle.

Test [1] relates to HepG2 orthotopic xenograft. Put plainly: Liver cancer orthotopic xenograft model (HepG2), 5 and 20 mg/kg. The format is in vivo, BalB/c nude mice. To be noted: M2 5 and 20 mg/kg i.p. once every two days, 10 treatments for 3 weeks. How it is done:
Another experiment was performed on the same liver cancer cell line by varying the experimental method. 5×10^6 HepG2 cells were injected into the backs of BalB/c nude mice, and when a sufficient cancer tissue was formed about 3 weeks later, the tissue was removed, uniformly cut into 1 mm^3, and transplanted into the right median lobe of the liver by excising the abdomen within 1 cm.
Small spots were confirmed on the MRI image about 10 days after transplanting the liver cancer tissue into 20 BalB/C nude mice by the above method, so that rodents with well-established liver cancer were divided into 3 groups (about 50 to 60%) (see FIG. 21A), a control and a hit (M2) material at 5 mg/kg and 20 mg/kg were injected into the abdominal cavity once every two days using less than 1.5% DMSO as a solvent (vehicle), and once a week, MRI images were used to select (follow up) rodents with constant tissue growth. Then, in a state in which the rapidly growing cancer tissue was 1 cm or less, the cancer tissue was observed after sacrificing the mice (10 treatments for 3 weeks).

In test [2] the test system is HepG2 human liver cancer cells. Nature of the test: Reactivity of M2 variants in HepG2. The format is cell-based. On the procedure:
To examine the ability of the compound to inhibit the growth of the breast cancer cell line, the compounds was treated at each indicated μM concentration 1 and 3 days after cell attachment, and the control was treated with a 0.1% solvent (DMSO). After another two days, the cell lines that were attached to the culture plate and grew were rinsed with 1×PBS and treated with 4% paraformaldehyde at room temperature for 10 minutes to fix the cells. Then, after cells were rinsed twice with PBS, the fixed cells were treated with a 0.5% Triton X-100 solution and reacted at room temperature for 15 minutes, rinsed another three times with PBS, and then treated with a DAPI reagent at 0.5 μg/ml, and reacted at 37° C. for 10 minutes to stain the cell nuclei. After the cells were additionally rinsed once with PBS, cells stained with DAPI were photographed by Cytation 3, and the resulting images were analyzed with Gen5 software (Biotek, USA). Meanwhile, cells that grew in a floating manner without being attached to the culture plate were treated with a 4% paraformaldehyde solution, reacted at room temperature for 10 minutes to fix the cells, and then photographed in a bright field by Cytation3, and the resulting images were analyzed by Gen5 software (Biotek, USA).
To analyze the ability to inhibit the growth of liver cancer cell lines, 6.6×10^3 HepG2 cells per well, 1×10^3 cells of each of Hep3B, SNU-475, and SNU-449 per well, and 2×10^3 SNU-387 cells per well were aliquoted in a 96-well plate, cultured in the same manner as described above, treated with Compound 2 (M2), Compound 3 (M4), Compound 4 (M21), Compound 5 (M23), and Compound 6 (M25), and then the ability to inhibit the growth of cells was analyzed.

Results on one compound are retold here after patent US20220033405A1, “PHARMACEUTICAL COMPOSITION FOR PREVENTING OR TREATING CANCER CONTAINING PLK1 INHIBITOR AS ACTIVE INGREDIENT” (NATIONAL CANCER CENTER, priority 2018, published 2022).

Turning to `Cn1c2nc(=O)[nH]c(=O)c-2nc2ccccc21` [Compound 2, 10-methyl-2H,3H,4H,10H-benzo[g]pteridine-2,4-dione], the cell viability entry in the test on HepG2 cells is recorded as “the relatively less the cell viability became”. Further, in the test on SNU-449, the “proportion of polyploid cells” value is on record as “not increased at all the treated concentrations”. Also, the “proportion of phospho-histone H3-positive cells” value in the test on SNU-449 (compared to CT) is reported as “decreased”. In test [1], the “volume of the cancer tissue” value is listed as “reduced remarkably as the dose of M2 was increased” and the “weight of the cancer tissue” value is given as “reduced remarkably as the dose of M2 was increased”. Moreover, in test [2], the “areas of liver cancer cells” value was “remarkably reduced in a dose-dependent manner”.
